Where “and” joins values, the source holds several entries; their conditions need not be identical. Equal values may be shown once. Toxic doses and inconclusive results are not listed. Cut-off read from the data, not from the text of the source: active = T/C of 150% or more; inactive = T/C below 125%.
Test system: L1210 leukemia ip in BDF1 mice, survival T/C
Assay: NCI In Vivo Anticancer Drug Screen. Data for tumor model L1210 Leukemia (intraperitoneal) in B6D2F1 (BDF1) mice
Settings: endpoint: mean survival time, higher = longer survival
Procedure, shortened: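 Ratio derived from survival: compound-dosed mice over vehicle-dosed mice, all bearing a transplantable tumor.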

[1] = dose: 50.0 mg/kg/injection, schedule: Q01DX009 (ip), vehicle: carboxymethylcellulose (CMC)
[2] = dose: 100.0 mg/kg/injection, schedule: Q01DX009 (ip), vehicle: carboxymethylcellulose (CMC)
[3] = dose: 100.0 mg/kg/injection, schedule: Q04DX002 (ip), vehicle: carboxymethylcellulose (CMC)
[4] = dose: 100.0 mg/kg/injection, schedule: Q04DX003 (ip), vehicle: carboxymethylcellulose (CMC)
[5] = dose: 200.0 mg/kg/injection, schedule: Q01DX009 (ip), vehicle: carboxymethylcellulose (CMC)
[6] = dose: 200.0 mg/kg/injection, schedule: Q04DX002 (ip), vehicle: carboxymethylcellulose (CMC)
[7] = dose: 200.0 mg/kg/injection, schedule: Q04DX003 (ip), vehicle: carboxymethylcellulose (CMC)
[8] = dose: 400.0 mg/kg/injection, schedule: Q04DX002 (ip), vehicle: carboxymethylcellulose (CMC)
[9] = dose: 100.0 mg/kg/injection, schedule: Q01DX009 (ip), vehicle: saline with Tween-80
[10] = dose: 100.0 mg/kg/injection, schedule: Q01DX009 (ip), vehicle: Klucel (hydroxypropylcellulose) (HPC)
[11] = dose: 200.0 mg/kg/injection, schedule: Q01DX009 (ip), vehicle: Klucel (hydroxypropylcellulose) (HPC)
[12] = dose: 400.0 mg/kg/injection, schedule: Q01DX009 (ip), vehicle: Klucel (hydroxypropylcellulose) (HPC)
[13] = dose: 50.0 mg/kg/injection, schedule: Q01DX001 (ip), vehicle: saline
[14] = dose: 100.0 mg/kg/injection, schedule: Q01DX001 (ip), vehicle: saline

Measured: T/C

NC(N)=N/N=C(/c1ccccc1)c1ccc(F)cc1
inactive: dose: 6.25 mg/kg/injection, schedule: Q01DX009 (ip), vehicle: carboxymethylcellulose (CMC) 95 % of control | dose: 12.5 mg/kg/injection, schedule: Q01DX009 (ip), vehicle: carboxymethylcellulose (CMC) 97 % of control | dose: 15.0 mg/kg/injection, schedule: Q01DX Z (ip), vehicle: saline 95 % of control | dose: 15.0 mg/kg/injection, schedule: Q01DX Z (oral), vehicle: saline 107 % of control | dose: 20.0 mg/kg/injection, schedule: Q01DX001 (ip), vehicle: other 107 % of control | dose: 20.0 mg/kg/injection, schedule: Q01DX009 (ip), vehicle: carboxymethylcellulose (CMC) 94 % of control | dose: 20.0 mg/kg/injection, schedule: Q01DX009 (ip), vehicle: other 103 % of control | dose: 25.0 mg/kg/injection, schedule: Q01DX009 (ip), vehicle: carboxymethylcellulose (CMC) 103 % of control | dose: 30.0 mg/kg/injection, schedule: Q01DX Z (ip), vehicle: saline 108 % of control | dose: 30.0 mg/kg/injection, schedule: Q01DX Z (oral), vehicle: saline 107 % of control | dose: 40.0 mg/kg/injection, schedule: Q01DX001 (ip), vehicle: other 110 % of control | dose: 40.0 mg/kg/injection, schedule: Q01DX009 (ip), vehicle: carboxymethylcellulose (CMC) 94 % of control | dose: 40.0 mg/kg/injection, schedule: Q01DX009 (ip), vehicle: other 90 % of control | [1] 115 % of control | dose: 80.0 mg/kg/injection, schedule: Q01DX009 (ip), vehicle: carboxymethylcellulose (CMC) 118 % of control

COC(=O)CCC(C)C1CCC2C3C(O)CC4CC(OC(C)=O)CCC4(C)C3CC(O)C12C (stereo not drawn)
inactive: [1] 102 % of control and 103 % of control | dose: 50.0 mg/kg/injection, schedule: Q04DX003 (ip), vehicle: carboxymethylcellulose (CMC) 95 % of control | [2] 95 % of control and 98 % of control | [3] 96 % of control and 101 % of control | [4] 95 % of control | [5] 88 % of control and 92 % of control | [6] 96 % of control and 91 % of control | [7] 88 % of control | [8] 86 % of control and 91 % of control

CCN(CC)CCCNC(c1ccc(Cl)cc1)C(Cl)(Cl)Cl (stereo not drawn)
inactive: dose: 75.0 mg/kg/injection, schedule: Q01DX001 (ip), vehicle: saline 88 % of control

c1ccc2c(c1)CCc1c-2[nH]c2ccccc12
inactive: [9] 96 % of control | dose: 200.0 mg/kg/injection, schedule: Q01DX009 (ip), vehicle: saline with Tween-80 94 % of control

C(COCCOCC1CO1)OCCOCC1CO1 (stereo not drawn)
inactive: dose: 62.0 mg/kg/injection, schedule: Q01DX Z (ip), vehicle: saline 110 % of control | dose: 125.0 mg/kg/injection, schedule: Q01DX Z (ip), vehicle: saline 117 % of control | dose: 250.0 mg/kg/injection, schedule: Q01DX Z (ip), vehicle: saline 116 % of control | dose: 500.0 mg/kg/injection, schedule: Q01DX Z (ip), vehicle: saline 108 % of control

O=C(O)c1ccccc1C(=O)c1ccc2c3c(cccc13)CC2
inactive: [10] 104 % of control | dose: 100.0 mg/kg/injection, schedule: Q04DX003 (ip), vehicle: Klucel (hydroxypropylcellulose) (HPC) 107 % of control | [11] 107 % of control | dose: 200.0 mg/kg/injection, schedule: Q04DX003 (ip), vehicle: Klucel (hydroxypropylcellulose) (HPC) 102 % of control | [12] 105 % of control | dose: 400.0 mg/kg/injection, schedule: Q04DX003 (ip), vehicle: Klucel (hydroxypropylcellulose) (HPC) 100 % of control

CS(=O)(=O)CCCl
inactive: [2] 102 % of control and 106 % of control | dose: 100.0 mg/kg/injection, schedule: Q04DX002 (ip), vehicle: Klucel (hydroxypropylcellulose) (HPC) 103 % of control | [3] 100 % of control and 109 % of control | [4] 107 % of control | [5] 98 % of control and 102 % of control | dose: 200.0 mg/kg/injection, schedule: Q04DX002 (ip), vehicle: Klucel (hydroxypropylcellulose) (HPC) 103 % of control | [6] 97 % of control and 98 % of control | [7] 98 % of control | dose: 400.0 mg/kg/injection, schedule: Q04DX002 (ip), vehicle: Klucel (hydroxypropylcellulose) (HPC) 103 % of control | [8] 102 % of control and 105 % of control | dose: 400.0 mg/kg/injection, schedule: Q04DX003 (ip), vehicle: carboxymethylcellulose (CMC) 102 % of control

COc1cccc(CN(C)C)c1C(C)(C)O
inactive: [13] 97 % of control | [14] 95 % of control

O=C1c2cccc3cccc(c23)C(=O)N1c1ncn[nH]1
inactive: [13] 94 % of control | [14] 107 % of control | dose: 400.0 mg/kg/injection, schedule: Q01DX001 (ip), vehicle: saline 102 % of control

CCc1c(Cl)nc(N)nc1Nc1ccc(C)c(C)c1
inactive: dose: 100.0 mg/kg/injection, schedule: Q01DX Z (ip), vehicle: methylcellulose (MC) 91 % of control | dose: 200.0 mg/kg/injection, schedule: Q01DX Z (ip), vehicle: methylcellulose (MC) 93 % of control

COc1cc(N)c([N+](=O)[O-])c(OC)c1
inactive: dose: 25.0 mg/kg/injection, schedule: Q01DX009 (ip), vehicle: saline with Tween-80 98 % of control | dose: 50.0 mg/kg/injection, schedule: Q01DX009 (ip), vehicle: saline with Tween-80 104 % of control | [9] 100 % of control | dose: 100.0 mg/kg/injection, schedule: Q04DX003 (ip), vehicle: saline with Tween-80 106 % of control

CCCCOC(=O)c1ccc(NC(=O)Nc2cc(C(F)(F)F)ccc2Cl)cc1
inactive: [10] 107 % of control | [11] 113 % of control | [12] 94 % of control

COc1ccc(C(=O)CC(=O)c2ccc(OC)cc2)cc1
inactive: dose: 50.0 mg/kg/injection, schedule: Q01DX001 (ip), vehicle: carboxymethylcellulose (CMC) 92 % of control | dose: 100.0 mg/kg/injection, schedule: Q01DX001 (ip), vehicle: carboxymethylcellulose (CMC) 92 % of control | dose: 200.0 mg/kg/injection, schedule: Q01DX001 (ip), vehicle: carboxymethylcellulose (CMC) 108 % of control | dose: 400.0 mg/kg/injection, schedule: Q01DX001 (ip), vehicle: carboxymethylcellulose (CMC) 94 % of control

CC(=O)OCc1cccc(C)n1
inactive: dose: 100.0 mg/kg/injection, schedule: Q01DX009 (ip), vehicle: saline 97 % of control | dose: 100.0 mg/kg/injection, schedule: Q04DX003 (ip), vehicle: saline 94 % of control and 102 % of control | dose: 200.0 mg/kg/injection, schedule: Q01DX009 (ip), vehicle: saline 96 % of control | dose: 200.0 mg/kg/injection, schedule: Q04DX003 (ip), vehicle: saline 100 % of control | dose: 400.0 mg/kg/injection, schedule: Q01DX009 (ip), vehicle: saline 100 % of control | dose: 400.0 mg/kg/injection, schedule: Q04DX003 (ip), vehicle: saline 93 % of control and 97 % of control

NC(=NC(=O)c1ccccc1)N[N+](=O)[O-]
inactive: dose: 100.0 mg/kg/injection, schedule: Q04DX002 (ip), vehicle: gum acacia 104 % of control | dose: 200.0 mg/kg/injection, schedule: Q04DX002 (ip), vehicle: gum acacia 107 % of control | dose: 400.0 mg/kg/injection, schedule: Q04DX002 (ip), vehicle: gum acacia 104 % of control

NC(=O)Oc1ccccc1Cl
inactive: dose: 75.0 mg/kg/injection, schedule: Q04DX003 (ip), vehicle: Klucel (hydroxypropylcellulose) (HPC) 104 % of control | dose: 150.0 mg/kg/injection, schedule: Q04DX003 (ip), vehicle: Klucel (hydroxypropylcellulose) (HPC) 100 % of control | dose: 300.0 mg/kg/injection, schedule: Q04DX003 (ip), vehicle: Klucel (hydroxypropylcellulose) (HPC) 105 % of control
